3 molecules from PubChem BioAssay (NCI) can be followed below.

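These data come from cells grown in 96-well plates and exposed to compound for 48 hours at five concentrations. The concentration for full growth arrest is given as TGI.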

Test systems include MCF7 breast; MALME-3M melanoma; SF-295 CNS; HL-60(TB) leukemia; SK-MEL-28 melanoma; UO-31 renal; OVCAR-4 ovarian; NCI-H226 lung; OVCAR-5 ovarian; COLO 205 colon; A498 renal; LOX IMVI melanoma.
Common to all, as to assay: growth of human tumour cells (NCI), 48 h

Consider `CCN(CC)c1ccc2cc(-c3nnc(-c4ccccc4)o3)c(=O)oc2c1`, for which the TGI was more than 100 µM with MCF7 breast; more than 100 µM in the assay with MALME-3M melanoma; more than 100 µM with SF-295 CNS; 70.6 µM in the assay on HL-60(TB) leukemia; more than 100 µM in the assay with SK-MEL-28 melanoma; more than 100 µM in the assay with UO-31 renal. Also, the TGI with OVCAR-4 ovarian was more than 100 µM; in the assay with NCI-H226 lung, more than 70.7 µM; in the assay with OVCAR-5 ovarian it was more than 100 µM; in the assay on COLO 205 colon it was more than 100 µM; in the assay with A498 renal, more than 100 µM; with LOX IMVI melanoma it was more than 100 µM.

As for `N#CSc1nc[nH]c1C(N)=O`, the TGI is more than 100 µM in the assay on MCF7 breast; 56.6 µM with MALME-3M melanoma; more than 100 µM in the assay with SF-295 CNS; 6.86 µM with HL-60(TB) leukemia; more than 100 µM in the assay with SK-MEL-28 melanoma; more than 100 µM with UO-31 renal. Further, the TGI in the assay on OVCAR-4 ovarian, in the assay with NCI-H226 lung, with OVCAR-5 ovarian, in the assay with COLO 205 colon, in the assay with A498 renal and in the assay on LOX IMVI melanoma was more than 100 µM in each case.

Regarding `c1cc(-c2ncc(-c3ccc4c(c3)CCCO4)o2)ccn1`, the TGI in the assay with MCF7 breast was 80.9 µM; with MALME-3M melanoma it was 50.8 µM; in the assay with SF-295 CNS it was more than 100 µM; with HL-60(TB) leukemia, 16 µM; with SK-MEL-28 melanoma, more than 100 µM; with UO-31 renal, more than 100 µM. The TGI in the assay on OVCAR-4 ovarian was more than 100 µM; with NCI-H226 lung, more than 100 µM; in the assay on OVCAR-5 ovarian it was more than 100 µM; in the assay with COLO 205 colon it was 91.5 µM; in the assay on A498 renal it was 59.6 µM; with LOX IMVI melanoma, 31 µM.
